Results on 20 compounds are retold here after patent publication US12202823B2 (QUIMATRYX, S.L., priority 2019, dated 2025).

Sequence of hHDAC6 (Q9UBN7 whole entry): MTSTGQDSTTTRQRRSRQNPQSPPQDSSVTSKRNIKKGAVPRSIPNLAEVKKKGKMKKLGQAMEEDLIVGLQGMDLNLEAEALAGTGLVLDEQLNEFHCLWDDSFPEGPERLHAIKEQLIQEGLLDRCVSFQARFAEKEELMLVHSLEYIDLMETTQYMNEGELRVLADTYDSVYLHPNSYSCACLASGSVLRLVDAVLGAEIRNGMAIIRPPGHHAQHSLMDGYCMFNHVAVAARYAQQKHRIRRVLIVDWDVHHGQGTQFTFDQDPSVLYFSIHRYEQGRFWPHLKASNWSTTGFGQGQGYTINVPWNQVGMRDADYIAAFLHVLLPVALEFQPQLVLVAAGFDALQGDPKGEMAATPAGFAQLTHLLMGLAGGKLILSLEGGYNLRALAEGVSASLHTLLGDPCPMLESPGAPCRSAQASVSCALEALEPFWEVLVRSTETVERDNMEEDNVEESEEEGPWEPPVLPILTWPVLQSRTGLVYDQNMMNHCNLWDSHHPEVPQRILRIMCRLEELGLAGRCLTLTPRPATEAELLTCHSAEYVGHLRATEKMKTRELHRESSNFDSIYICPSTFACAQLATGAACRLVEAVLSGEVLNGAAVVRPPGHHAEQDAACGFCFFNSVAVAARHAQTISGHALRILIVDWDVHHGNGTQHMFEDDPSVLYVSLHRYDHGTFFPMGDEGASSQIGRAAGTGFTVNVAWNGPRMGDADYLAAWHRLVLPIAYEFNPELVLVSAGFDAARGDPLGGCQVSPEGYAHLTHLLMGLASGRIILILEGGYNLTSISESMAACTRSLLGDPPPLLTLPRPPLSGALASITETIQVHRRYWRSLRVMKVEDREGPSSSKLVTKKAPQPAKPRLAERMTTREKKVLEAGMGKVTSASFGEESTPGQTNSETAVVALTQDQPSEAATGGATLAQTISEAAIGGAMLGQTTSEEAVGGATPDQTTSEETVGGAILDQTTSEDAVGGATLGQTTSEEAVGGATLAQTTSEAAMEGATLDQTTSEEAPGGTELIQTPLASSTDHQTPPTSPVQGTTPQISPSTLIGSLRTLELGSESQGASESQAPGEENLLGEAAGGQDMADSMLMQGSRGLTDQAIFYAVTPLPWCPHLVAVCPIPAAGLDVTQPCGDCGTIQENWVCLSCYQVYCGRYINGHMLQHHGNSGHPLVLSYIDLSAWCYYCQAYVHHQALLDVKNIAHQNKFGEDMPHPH

This test addresses hHDAC6 (Homo sapiens (Human), UniProt Q9UBN7). Put plainly: HDAC6 inhibition protocol. Particulars: read-out: IC50 (nM) of enzyme activity HDAC6; hHDAC6 1.20 nM, Acetylated Peptide A 2 μM, 1 hour at RT.
Method: After enzymatic reactions, reaction was stopped by adding 5 μl of 10 μM solution of a known inhibitor. The fluorescent signal of substrate and product was measured by means of microfluidics mobility assay in a EZ Reader II equipment. The percentage of conversion of substrate into product was calculated by the equipment software based on the area of the peaks.
The percentage of conversion data were analyzed using the computer software, Graphpad Prism. In the absence of the compound, the conversion (Ct) in each data set was defined as 100% activity. In the absence of HDAC, the conversion (Cb) in each data set was defined as 0% activity. The percent activity in the presence of each compound was calculated according to the following equation: % inhibition=(Ct−C)/(Ct−Cb), where C=the percentage of conversion in the presence of the compound.
The values of % inhibition versus a series of compound concentrations were then plotted using non-linear regression analysis of Sigmoidal dose-response curve generated with the equation Y=B+(T−B)/1+10((Log EC50−X)×Hill Slope), where Y=percent inhibition, B=minimum percent inhibition, T=maximum percent inhibition, X=logarithm of compound and Hill Slope=slope factor or Hill coefficient. The IC50 value was determined by the concentration causing a half-maximal percent activity.
The buffer assay used in the inhibition hHDAC6 assay is: Hepes 50 mM, KCl 100 mM, Tween 20 0.001%, BSA 0.01%; pH=7.4.
For the compound `FC(F)c1nnc(-c2ccc(Cn3ccc4cnccc43)cc2)o1` [Example 3, 2-(4-((1H-pyrrolo[3,2-c]pyridin-1-yl)methyl)phenyl)-5-(difluoromethyl)-1,3,4-oxadiazole], the IC50 – broadly, the midpoint of a concentration-inhibition curve – turned out to be 4910 nM.

With `O=C(c1nc2cc(Cl)c(Cl)cc2n1Cc1ccc(-c2nnc(C(F)F)o2)cc1)C(F)F` [Example 9, 1-(5,6-dichloro-1-(4-(5-(difluoromethyl)-1,3,4-oxadiazol-2-yl)benzyl)-1H-benzo[d]imidazol-2-yl)-2,2-difluoroethanone], the IC50 was found to be 236 nM.

Consider `Fc1cccc(F)c1-c1cn(Cc2ccc(-c3nnc(C(F)F)o3)cn2)nn1` [Example 49, 2-(difluoromethyl)-5-(6-((4-(2,6-difluorophenyl)-1H-1,2,3-triazol-1-yl)methyl)pyridin-3-yl)-1,3,4-oxadiazole], for which the IC50 stood at 66.7 nM. Regarding `Fc1cc(F)cc(-c2cn(Cc3ccc(-c4nnc(C(F)F)o4)cn3)nn2)c1` [Example 56, 2-(difluoromethyl)-5-(6-((4-(3,5-difluorophenyl)-1H-1,2,3-triazol-1-yl)methyl)pyridin-3-yl)-1,3,4-oxadiazole], the IC50 came out at 66.5 nM. On to `FC(F)c1nnc(-c2ccc(Cn3cc(-c4ccccc4)nn3)cn2)o1` [Example 42, 2-(difluoromethyl)-5-(5-((4-phenyl-1H-1,2,3-triazol-1-yl)methyl)pyridin-2-yl)-1,3,4-oxadiazole], for which the IC50 turned out to be 1990 nM. The same measure for `FC(F)c1nnc(-c2ccc(Cn3cc(-c4ccncc4)nn3)cc2)o1` [Example 33, 2-(difluoromethyl)-5-(4-((4-(pyridin-4-yl)-1H-1,2,3-triazol-1-yl)methyl)phenyl)-1,3,4-oxadiazole]: 188 nM; for `O=c1n(-c2ccccc2)cnn1Cc1ccc(-c2nnc(C(F)F)o2)cc1` [Example 18, 1-(4-(5-(difluoromethyl)-1,3,4-oxadiazol-2-yl)benzyl)-4-phenyl-1H-1,2,4-triazol-5(4H)-one]: 1160 nM; for `FC(F)c1nnc(-c2ccc(Cn3nnc4ccc(Cl)cc43)cc2)o1` [Example 13, 2-(4-((6-chloro-1H-benzo[d][1,2,3]triazol-1-yl)methyl)phenyl)-5-(difluoromethyl)-1,3,4-oxadiazole]: 129 nM.

On to `FC(F)c1nnc(-c2ccc(Cn3nnc4cccnc43)nc2)o1` [Example 23, 2-(6-((3H-[1,2,3]triazolo[4,5-b]pyridin-3-yl)methyl)pyridin-3-yl)-5-(difluoromethyl)-1,3,4-oxadiazole], for which the concentration for half-maximal inhibition (IC50) is 190 nM. To `FC(F)c1nnc(-c2ccc(Cn3cc(-c4cccc(Cl)c4)nn3)nc2)o1` [Example 45, 2-(6-((4-(3-chlorophenyl)-1H-1,2,3-triazol-1-yl)methyl)pyridin-3-yl)-5-(difluoromethyl)-1,3,4-oxadiazole] belongs 33.5 nM. The same measure for `Cc1nc2cc(Cl)c(Cl)cc2n1Cc1ccc(-c2nnc(C(F)F)o2)cn1` [Example 60, 2-(6-((5,6-dichloro-2-methyl-1H-benzo[d]imidazol-1-yl)methyl)pyridin-3-yl)-5-(difluoromethyl)-1,3,4-oxadiazole]: 42.3 nM; for `FC(F)c1nnc(-c2ccc(Cn3cc(-c4ccccc4)nn3)nc2)o1` [Example 41, 2-(difluoromethyl)-5-(6-((4-phenyl-1H-1,2,3-triazol-1-yl)methyl)pyridin-3-yl)-1,3,4-oxadiazole]: 40.9 nM.

In the case of `FC(F)c1nnc(-c2ccc(Cn3nnc(-c4ccccc4Cl)c3Cl)nc2)o1` [Example 53, 2-(6-((5-chloro-4-(2-chlorophenyl)-1H-1,2,3-triazol-1-yl)methyl)pyridin-3-yl)-5-(difluoromethyl)-1,3,4-oxadiazole], the IC50 was determined as 81.5 nM. Take `FC(F)c1nnc(-c2ccc(Cn3ccc4ncccc43)cc2)o1` [Example 2, 2-(4-((1H-pyrrolo[3,2-b]pyridin-1-yl)methyl)phenyl)-5-(difluoromethyl)-1,3,4-oxadiazole]: the IC50 was found to be 1040 nM. The same measure for `FC(F)c1nnc(-c2ccc(Cn3cc(-c4ccc(Cl)c(Cl)c4)nn3)nc2)o1` [Example 46, 2-(6-((4-(3,4-dichlorophenyl)-1H-1,2,3-triazol-1-yl)methyl)pyridin-3-yl)-5-(difluoromethyl)-1,3,4-oxadiazole]: 37.9 nM; for `CC(c1ccc(-c2nnc(C(F)F)o2)cc1)n1cnc2ccccc21` (centres unmarked) [Example 20, 2-(4-(1-(1H-benzo[d]imidazol-1-yl)ethyl)phenyl)-5-(difluoromethyl)-1,3,4-oxadiazole]: 589 nM; for `O=C1N(Cc2ccc(-c3nnc(C(F)F)o3)cc2)c2ccccc2C12CCOCC2` [Example 19]: 229 nM. To `FC(F)c1nnc(-c2ccc(Cn3nnc(-c4ccccc4)c3-c3ccccc3)cc2)o1` [Example 38, 2-(difluoromethyl)-5-(4-((4,5-diphenyl-1H-1,2,3-triazol-1-yl)methyl)phenyl)-1,3,4-oxadiazole] belongs 266 nM; to `CC(c1ccc(-c2nnc(C(F)F)o2)cc1)n1cc(-c2ccccc2)nn1` (centres unmarked) [Example 37, 2-(difluoromethyl)-5-(4-(1-(4-phenyl-1H-1,2,3-triazol-1-yl)ethyl)phenyl)-1,3,4-oxadiazole], 149 nM; to `FC(F)c1nnc(-c2ccc(Cn3cc(C4CCCCC4)nn3)cc2)o1` [Example 32, 2-(4-((4-cyclohexyl-1H-1,2,3-triazol-1-yl)methyl)phenyl)-5-(difluoromethyl)-1,3,4-oxadiazole], 475 nM.
